In patent US20230295197A1, “STAT5 and STAT6 Degraders and Uses Thereof” (REGENTS OF THE UNIVERSITY OF MICHICAN, priority 2022, published 2023):

Molecular target: T1, STAT6 (Homo sapiens, UniProt P42226)
T1 construct: endogenous in cells; host or cells: MOLM-16, KU-812, SKNO1, MB231, L1236
T1 sequence (P42226 1-847): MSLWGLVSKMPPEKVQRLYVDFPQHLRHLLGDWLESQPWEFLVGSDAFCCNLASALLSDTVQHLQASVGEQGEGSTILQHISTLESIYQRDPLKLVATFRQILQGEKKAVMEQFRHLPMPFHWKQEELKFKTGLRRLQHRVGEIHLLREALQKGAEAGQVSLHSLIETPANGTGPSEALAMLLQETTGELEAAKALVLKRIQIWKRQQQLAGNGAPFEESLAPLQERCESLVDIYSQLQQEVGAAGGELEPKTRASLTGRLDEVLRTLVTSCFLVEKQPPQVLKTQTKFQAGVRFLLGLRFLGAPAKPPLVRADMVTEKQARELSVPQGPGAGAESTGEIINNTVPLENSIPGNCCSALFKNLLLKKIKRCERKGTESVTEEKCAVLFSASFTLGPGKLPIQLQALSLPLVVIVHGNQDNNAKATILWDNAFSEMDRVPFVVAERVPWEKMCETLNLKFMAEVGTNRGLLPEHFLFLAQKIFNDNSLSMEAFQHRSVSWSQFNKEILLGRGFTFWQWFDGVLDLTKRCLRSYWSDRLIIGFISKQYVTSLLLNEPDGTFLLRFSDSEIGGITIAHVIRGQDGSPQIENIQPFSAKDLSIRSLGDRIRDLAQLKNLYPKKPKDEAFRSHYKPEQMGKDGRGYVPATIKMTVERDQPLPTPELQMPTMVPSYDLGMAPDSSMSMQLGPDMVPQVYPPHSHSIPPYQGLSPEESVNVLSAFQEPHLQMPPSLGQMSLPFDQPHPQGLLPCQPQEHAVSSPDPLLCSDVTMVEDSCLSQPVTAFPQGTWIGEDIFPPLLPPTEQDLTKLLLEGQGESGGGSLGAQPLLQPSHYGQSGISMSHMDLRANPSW
Experiment: Immunoblotting (Western blot) analysis of STAT6 degradation efficiency of degraders in treated cells
Type: cell-based
Conditions: L1236 cells, read-out: DC50 S6 L1236
Method in brief: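 About 1 million cells per point, grown in 10% FBS medium at 37 °C/5% CO2, were exposed to compound at the indicated concentrations and times, then lysed in RIPA buffer with protease and phosphatase inhibitors. Equal protein (20-40 μg) was resolved by SDS-PAGE, blotted to PVDF, and probed with anti-STAT5, anti-STAT6 and anti-GAPDH antibodies.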

| SMILES | DC50 [µM] |
| --- | --- |
| O=C1CCC(N2Cc3cc(C#CCCCCCC(=O)N4CC[C@H]5CC[C@@H](C(=O)N6CCOC(c7ccc(F)c(Cl)c7)C6)N5C(=O)[C@@H](NC(=O)c5cc6cc(C(F)(F)P(=O)(O)O)ccc6s5)C4)ccc3C2=O)C(=O)N1 (stereo partly drawn) [Compound 575, ((2-(((5S,8S,10aR)-8-(2-(3-chloro-4-fluorophenyl)morpholine-4-carbonyl)-3-(8-(2-(2,6-dioxopiperidin-3-yl)-1-oxoisoindolin-5-yl)oct-7-ynoyl)-6-oxodecahydropyrrolo[1,2-a][1,5]diazocin-5-yl)carbamoyl)benzo[b]thiophen-5-yl)difluoromethyl)phosphonic acid] | > 10 |
| Cc1ncsc1-c1ccc([C@H](C)NC(=O)[C@@H]2C[C@@H](O)CN2C(=O)[C@@H](NC(=O)CCNC(=O)CC(=O)N2CCN(C(=O)[C@@H](NC(=O)c3cc4cc(C(F)(F)P(=O)(O)O)ccc4s3)C(C)(C)C)[C@H](C(=O)N3CCC[C@H](c4ccccc4)C3)C2)C(C)(C)C)cc1 [Compound 453, (difluoro(2-(((S)-1-((S)-4-(3-((3-(((S)-1-((2S,4R)-4-hydroxy-2-(((S)-1-(4-(4-methylthiazol-5-yl)phenyl)ethyl)carbamoyl)pyrrolidin-1-yl)-3,3-dimethyl-1-oxobutan-2-yl)amino)-3-oxopropyl)amino)-3-oxopropanoyl)-2-((R)-3-phenylpiperidine-1-carbonyl)piperazin-1-yl)-3,3-dimethyl-1-oxobutan-2-yl)carbamoyl)benzo[b]thiophen-5-yl)methyl)phosphonic acid] | > 10 |

Same assay, conditions: MB231 cells, read-out: DC50 S6 MB231

| SMILES | DC50 [µM] |
| --- | --- |
| CC(C)(C)[C@H](NC(=O)c1cc2cc(C(F)(F)P(=O)(O)O)ccc2s1)C(=O)N1CCC[C@H]1C(=O)N(CCC(=O)NCCCCCCCCCC#Cc1cccc2c1CN(C1CCC(=O)NC1=O)C2=O)c1ccc(Br)cc1 (stereo partly drawn) [Compound 402, ((2-(((2S)-1-((2S)-2-((4-bromophenyl)(3-((11-(2-(2,6-dioxopiperidin-3-yl)-1-oxoisoindolin-4-yl)undec-10-yn-1-yl)amino)-3-oxopropyl)carbamoyl)pyrrolidin-1-yl)-3,3-dimethyl-1-oxobutan-2-yl)carbamoyl)benzo[b]thiophen-5-yl)difluoromethyl)phosphonic acid] | > 10 |

Same assay, conditions: MOLM-16 cells, class symbols, read-out: DC50 S6 MOLM-16

| SMILES | DC50 [µM] |
| --- | --- |
| CC(C)(C)[C@H](NC(=O)c1cc2cc(C(F)(F)P(=O)(O)O)ccc2s1)C(=O)N1CCN(C(=O)CC(=O)NCCC#Cc2ccc3c(c2)C(=O)N(C2CCC(=O)NC2=O)C3=O)C[C@H]1C(=O)N1CCO[C@H](c2ccccc2)C1 (stereo partly drawn) [Compound 510, ((2-(((2S)-1-((2S)-4-(3-((4-(2-(2,6-dioxopiperidin-3-yl)-1,3-dioxoisoindolin-5-yl)but-3-yn-1-yl)amino)-3-oxopropanoyl)-2-((R)-2-phenylmorpholine-4-carbonyl)piperazin-1-yl)-3,3-dimethyl-1-oxobutan-2-yl)carbamoyl)benzo[b]thiophen-5-yl)difluoromethyl)phosphonic acid] | > 10 |
| CC(C)(C)[C@H](NC(=O)c1cc2cc(C(F)(F)P(=O)(O)O)ccc2s1)C(=O)N1Cc2cc(OCC(=O)NCCCCCCCCCC#Cc3ccc4c(c3)C(=O)N(C3CCC(=O)NC3=O)C4=O)ccc2C[C@H]1C(=O)N1CCO[C@H](c2ccccc2)C1 (stereo partly drawn) [Compound 548, ((2-(((2S)-1-((3S)-7-(2-((11-(2-(2,6-dioxopiperidin-3-yl)-1,3-dioxoisoindolin-5-yl)undec-10-yn-1-yl)amino)-2-oxoethoxy)-3-((R)-2-phenylmorpholine-4-carbonyl)-3,4-dihydroisoquinolin-2(1H)-yl)-3,3-dimethyl-1-oxobutan-2-yl)carbamoyl)benzo[b]thiophen-5-yl)difluoromethyl)phosphonic acid] | > 10 |
| CC(C)(C)[C@H](NC(=O)c1cc2cc(C(F)(F)P(=O)(O)O)ccc2s1)C(=O)N1C[C@@H](OCC(=O)NCCCCC#Cc2ccc3c(c2)C(=O)N(C2CCC(=O)NC2=O)C3=O)C[C@H]1C(=O)N1CCO[C@H](c2ccccc2)C1 (stereo partly drawn) [Compound 486, ((2-(((2S)-1-((2S,4S)-4-(2-((6-(2-(2,6-dioxopiperidin-3-yl)-1,3-dioxoisoindolin-5-yl)hex-5-yn-1-yl)amino)-2-oxoethoxy)-2-((R)-2-phenylmorpholine-4-carbonyl)pyrrolidin-1-yl)-3,3-dimethyl-1-oxobutan-2-yl)carbamoyl)benzo[b]thiophen-5-yl)difluoromethyl)phosphonic acid] | > 10 |
| O=C1CCC(N2Cc3cc(C#CCCCCCC(=O)N4CC[C@H]5CC[C@@H](C(=O)N6CCOC(c7ccc(F)c(Cl)c7)C6)N5C(=O)[C@@H](NC(=O)c5cc6cc(C(F)(F)P(=O)(O)O)ccc6s5)C4)ccc3C2=O)C(=O)N1 (stereo partly drawn) [Compound 575, ((2-(((5S,8S,10aR)-8-(2-(3-chloro-4-fluorophenyl)morpholine-4-carbonyl)-3-(8-(2-(2,6-dioxopiperidin-3-yl)-1-oxoisoindolin-5-yl)oct-7-ynoyl)-6-oxodecahydropyrrolo[1,2-a][1,5]diazocin-5-yl)carbamoyl)benzo[b]thiophen-5-yl)difluoromethyl)phosphonic acid] | > 10 |
| CC(C)(C)[C@H](NC(=O)c1cc2cc(C(F)(F)P(=O)(O)O)ccc2s1)C(=O)N1C[C@@H](OCC(=O)NCCC#Cc2ccc3c(c2)C(=O)N(C2CCC(=O)NC2=O)C3=O)C[C@H]1C(=O)N1CCC[C@H](c2ccccc2)C1 (stereo partly drawn) [Compound 496, ((2-(((2S)-1-((2S,4S)-4-(2-((4-(2-(2,6-dioxopiperidin-3-yl)-1,3-dioxoisoindolin-5-yl)but-3-yn-1-yl)amino)-2-oxoethoxy)-2-((R)-3-phenylpiperidine-1-carbonyl)pyrrolidin-1-yl)-3,3-dimethyl-1-oxobutan-2-yl)carbamoyl)benzo[b]thiophen-5-yl)difluoromethyl)phosphonic acid] | > 10 |
| CC(C)(C)[C@H](NC(=O)c1cc2cc(C(F)(F)P(=O)(O)O)ccc2s1)C(=O)N1CCN(C(=O)CC(=O)NCCC#Cc2cccc3c2C(=O)N(C2CCC(=O)NC2=O)C3=O)C[C@H]1C(=O)N1CCC[C@H](c2ccccc2)C1 (stereo partly drawn) [Compound 523, ((2-(((2S)-1-((2S)-4-(3-((4-(2-(2,6-dioxopiperidin-3-yl)-1,3-dioxoisoindolin-4-yl)but-3-yn-1-yl)amino)-3-oxopropanoyl)-2-((R)-3-phenylpiperidine-1-carbonyl)piperazin-1-yl)-3,3-dimethyl-1-oxobutan-2-yl)carbamoyl)benzo[b]thiophen-5-yl)difluoromethyl)phosphonic acid] | > 10 |
| Cc1ncsc1-c1ccc([C@H](C)NC(=O)[C@@H]2C[C@@H](O)CN2C(=O)[C@@H](NC(=O)CCNC(=O)CC(=O)N2CCN(C(=O)[C@@H](NC(=O)c3cc4cc(C(F)(F)P(=O)(O)O)ccc4s3)C(C)(C)C)[C@H](C(=O)N3CCC[C@H](c4ccccc4)C3)C2)C(C)(C)C)cc1 [Compound 453, (difluoro(2-(((S)-1-((S)-4-(3-((3-(((S)-1-((2S,4R)-4-hydroxy-2-(((S)-1-(4-(4-methylthiazol-5-yl)phenyl)ethyl)carbamoyl)pyrrolidin-1-yl)-3,3-dimethyl-1-oxobutan-2-yl)amino)-3-oxopropyl)amino)-3-oxopropanoyl)-2-((R)-3-phenylpiperidine-1-carbonyl)piperazin-1-yl)-3,3-dimethyl-1-oxobutan-2-yl)carbamoyl)benzo[b]thiophen-5-yl)methyl)phosphonic acid] | > 10 |
| Cc1ncsc1-c1ccc([C@H](CC(=O)NCCCCCCCCCC(=O)N[C@H]2C[C@@H](C(=O)N3CCO[C@H](c4ccccc4)C3)N(C(=O)[C@@H](NC(=O)c3cc4cc(C(F)(F)P(=O)(O)O)ccc4s3)C(C)(C)C)C2)NC(=O)[C@@H]2C[C@@H](O)CN2C(=O)[C@@H](NC(=O)C2(F)CC2)C(C)(C)C)cc1 [Compound 572, (difluoro(2-(((S)-1-((2S,4S)-4-(10-((S)-3-((2S,4R)-1-((S)-2-(1-fluorocyclopropane-1-carboxamido)-3,3-dimethylbutanoyl)-4-hydroxypyrrolidine-2-carboxamido)-3-(4-(4-methylthiazol-5-yl)phenyl)propanamido)decanamido)-2-((R)-2-phenylmorpholine-4-carbonyl)pyrrolidin-1-yl)-3,3-dimethyl-1-oxobutan-2-yl)carbamoyl)benzo[b]thiophen-5-yl)methyl)phosphonic acid] | > 10 |

Same assay, conditions: MOLM-16 cells, numeric bound, read-out: DC50 S6 MOLM-16

| SMILES | DC50 [µM] |
| --- | --- |
| CC(C)(C)[C@H](NC(=O)c1cc2cc(C(F)(F)P(=O)(O)O)ccc2s1)C(=O)N1C[C@@H](OCCCCCC#Cc2cccc3c2CN(C2CCC(=O)NC2=O)C3=O)C[C@H]1C(=O)N1CCC[C@H](c2ccccc2)C1 (stereo partly drawn) [Compound 601, ((2-(((2S)-1-((2S,4S)-4-((7-(2-(2,6-dioxopiperidin-3-yl)-1-oxoisoindolin-4-yl)hept-6-yn-1-yl)oxy)-2-((R)-3-phenylpiperidine-1-carbonyl)pyrrolidin-1-yl)-3,3-dimethyl-1-oxobutan-2-yl)carbamoyl)benzo[b]thiophen-5-yl)difluoromethyl)phosphonic acid] | > 0.3 |
| CC(C)(C)[C@H](NC(=O)c1cc2cc(C(F)(F)P(=O)(O)O)ccc2s1)C(=O)N1C[C@@H](OCCCCCCC#Cc2cccc3c2CN(C2CCC(=O)NC2=O)C3=O)C[C@H]1C(=O)N1CCOC(c2cccc3ccccc23)C1 (some centres unmarked) [Compound 612] | > 0.3 |
| CC(C)(C)[C@H](NC(=O)c1cc2cc(C(F)(F)P(=O)(O)O)ccc2s1)C(=O)N1C[C@H](OCCCCCC#Cc2cccc3c2CN(C2CCC(=O)NC2=O)C3=O)C[C@H]1C(=O)N1CCC[C@H](c2ccccc2)C1 (stereo partly drawn) [Compound 602, ((2-(((2S)-1-((2S,4R)-4-((7-(2-(2,6-dioxopiperidin-3-yl)-1-oxoisoindolin-4-yl)hept-6-yn-1-yl)oxy)-2-((R)-3-phenylpiperidine-1-carbonyl)pyrrolidin-1-yl)-3,3-dimethyl-1-oxobutan-2-yl)carbamoyl)benzo[b]thiophen-5-yl)difluoromethyl)phosphonic acid] | > 0.3 |
